Read-outs that look alike come from different tables or passages of the source.
How the values were obtained:
Format in all cases: cell-based
[1] = target: T1, hGIPR (Homo sapiens, UniProt P48546); experiment: Functional cAMP formation (HTRF) in HEK-293 clonal cells expressing hGIPR, 0.1% bovine casein, without or with 1.0% human serum albumin; conditions: for EC50: geometric mean
T1 construct: expressed in transfected cells
T1 sequence (P48546 22-466): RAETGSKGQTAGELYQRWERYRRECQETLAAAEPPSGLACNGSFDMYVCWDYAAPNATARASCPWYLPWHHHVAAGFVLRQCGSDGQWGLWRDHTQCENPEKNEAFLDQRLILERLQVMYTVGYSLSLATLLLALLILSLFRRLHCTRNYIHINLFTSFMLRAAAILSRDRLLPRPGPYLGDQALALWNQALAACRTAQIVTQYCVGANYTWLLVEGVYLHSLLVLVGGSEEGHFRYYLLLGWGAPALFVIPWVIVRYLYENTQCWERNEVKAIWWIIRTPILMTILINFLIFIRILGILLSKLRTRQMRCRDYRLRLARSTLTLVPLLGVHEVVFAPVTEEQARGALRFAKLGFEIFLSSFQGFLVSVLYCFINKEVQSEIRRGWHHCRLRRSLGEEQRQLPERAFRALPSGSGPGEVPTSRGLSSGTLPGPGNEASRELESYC
How it was run: (§1)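 Readings of the HTRF 665/620 nm ratio, which falls as cAMP rises, were converted to nM cAMP using a standard curve after 30 min peptide exposure at 37° C.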

[2] = target: hGLP-1R (Homo sapiens, UniProt P43220); experiment: Functional cAMP formation (HTRF) in HEK-293 clonal cells expressing hGLP-1R, 0.1% bovine casein, without or with 1.0% human serum albumin; parameters: expressed in transfected cells
hGLP-1R, sequence (P43220 24-463): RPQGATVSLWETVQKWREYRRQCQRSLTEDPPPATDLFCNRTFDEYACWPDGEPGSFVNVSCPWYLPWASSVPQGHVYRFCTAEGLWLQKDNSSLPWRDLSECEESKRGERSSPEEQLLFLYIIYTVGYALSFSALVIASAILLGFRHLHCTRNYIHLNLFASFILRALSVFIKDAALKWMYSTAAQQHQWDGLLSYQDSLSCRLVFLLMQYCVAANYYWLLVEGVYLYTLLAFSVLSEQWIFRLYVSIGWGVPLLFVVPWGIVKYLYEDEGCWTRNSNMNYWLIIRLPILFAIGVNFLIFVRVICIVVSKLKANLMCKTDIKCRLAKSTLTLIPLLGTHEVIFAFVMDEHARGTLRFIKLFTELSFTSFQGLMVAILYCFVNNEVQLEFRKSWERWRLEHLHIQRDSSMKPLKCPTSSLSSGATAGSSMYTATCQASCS
How it was run: as §1

[3] = target: T2, hGCGR (Homo sapiens, UniProt P47871); experiment: Functional cAMP formation (HTRF) in HEK-293 clonal cells expressing hGCGR, 0.1% bovine casein, without or with 1.0% human serum albumin
T2 construct: expressed in transfected cells
T2 sequence (P47871 26-477): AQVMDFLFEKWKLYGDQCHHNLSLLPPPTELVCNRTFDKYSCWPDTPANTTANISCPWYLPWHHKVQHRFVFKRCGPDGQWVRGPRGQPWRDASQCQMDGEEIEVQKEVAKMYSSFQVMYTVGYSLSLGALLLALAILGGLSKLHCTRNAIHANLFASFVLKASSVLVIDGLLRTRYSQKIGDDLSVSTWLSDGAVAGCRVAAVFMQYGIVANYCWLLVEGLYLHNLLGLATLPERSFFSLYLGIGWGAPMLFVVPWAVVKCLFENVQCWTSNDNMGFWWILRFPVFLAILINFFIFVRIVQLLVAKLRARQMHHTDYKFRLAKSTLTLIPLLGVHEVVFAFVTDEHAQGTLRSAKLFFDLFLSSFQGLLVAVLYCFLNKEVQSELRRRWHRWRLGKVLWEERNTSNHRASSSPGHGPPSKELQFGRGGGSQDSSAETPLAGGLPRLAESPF
How it was run: as §1

[4] = HEK293, read-out: hGIPR Emax, % ± SEM, cAMP, 37° C., 0.1% bovine casein and 1.0% human serum albumin, percent of maximal response to GIP(1-42)NH2
[5] = hGIPR EC50, nM (SEM, n), cAMP, 37° C., 0.1% bovine casein (no human serum albumin)
[6] = hGLP-1R EC50, nM (SEM, n), cAMP, 37° C., 0.1% bovine casein (no human serum albumin), geometric mean
[7] = hGCGR EC50, nM (SEM, n), cAMP, 37° C., 0.1% bovine casein (no human serum albumin), geometric mean
[8] = hGCGR EC50, nM (SEM, n), cAMP, 37° C., 0.1% bovine casein and 1.0% human serum albumin, geometric mean (SEM, n)

Q: For `CC[C@H](C)[C@H](NC(=O)[C@H](CC(C)C)NC(=O)[C@](C)(Cc1ccc(O)cc1)NC(=O)[C@@H](CCC(=O)O)NC(=O)[C@@H](NC(=O)[C@H](Cc1ccccc1)NC(=O)[C@H](CCCCNC(=O)COCCOCCNC(=O)CC[C@H](NC(=O)CCCCCCCCCOc1ccc(C(=O)O)cc1)C(=O)O)NC(=O)C(C)(C)NC(=O)[C@H](CCC(N)=O)NC(=O)[C@H](C)NC(=O)[C@H](CCCCNC(=O)COCCOCCNC(=O)CC[C@H](NC(=O)CCCCCCCCCOc1ccc(C(=O)O)cc1)C(=O)O)NC(=O)[C@H](CCCN)NC(=O)[C@H](CC(=O)O)NC(=O)[C@H](CC(C)C)NC(=O)[C@](C)(CC(C)C)NC(=O)[C@@H](NC(=O)C(C)(C)NC(=O)[C@@H](NC(=O)[C@H](CC(=O)O)NC(=O)[C@H](CO)NC(=O)[C@@H](NC(=O)[C@](C)(Cc1ccccc1F)NC(=O)[C@@H](NC(=O)CNC(=O)[C@H](CCC(=O)O)NC(=O)C(C)(C)NC(=O)[C@@H](N)Cc1ccc(O)cc1)[C@@H](C)O)[C@@H](C)O)C(C)C)[C@@H](C)CC)[C@@H](C)CC)C(=O)N[C@@H](CCC(=O)O)C(=O)NCC(=O)NCC(=O)N1CCC[C@H]1C(=O)N[C@@H](CO)C(=O)N[C@@H](CO)C(=O)NCC(=O)N[C@@H](C)C(=O)N1CCC[C@H]1C(=O)N1CCC[C@H]1C(=O)N1CCC[C@H]1C(=O)N[C@@H](CO)C(N)=O` [Example 378], which Emax [1, 4] is on record?
A: 81.2%

Q: And the Emax ([1]; HEK293, read-out: hGIPR Emax, % ± SEM, cAMP, 37° C., 0.1% bovine casein, percent of maximal response to GIP(1-42)NH2, arithmetic mean)?
A: 93.5%

Q: And the EC50 [1, 5]?
A: 0.0132 nM

Q: And the Emax ([2]; HEK293, read-out: hGLP-1R Emax, % ± SEM, cAMP, 37° C., 0.1% bovine casein, percent of maximal response to GLP-1(7-36)NH2, arithmetic mean)?
A: 98.9%

Q: And the EC50 [2, 6]?
A: 0.166 nM

Q: What about the EC50 [3, 7] of the same compound?
A: > 9950 nM

Q: What about the EC50 [3, 8] of the same compound?
A: > 9950 nM

Q: What does the source list for `CC[C@H](C)[C@H](NC(=O)[C@H](CC(C)C)NC(=O)[C@](C)(Cc1ccccc1)NC(=O)[C@H](CCCCNC(=O)COCCOCCNC(=O)COCCOCCNC(=O)CC[C@H](NC(=O)CCCCCCCCCCCCC(=O)O)C(=O)O)NC(=O)[C@@H](NC(=O)[C@](C)(Cc1ccccc1)NC(=O)[C@H](CCC(=O)O)NC(=O)C(C)(C)NC(=O)[C@H](CCC(N)=O)NC(=O)[C@H](C)NC(=O)[C@H](CCCCNC(=O)COCCOCCNC(=O)COCCOCCNC(=O)CC[C@H](NC(=O)CCCCCCCCCCCCC(=O)O)C(=O)O)NC(=O)[C@H](CCCN)NC(=O)[C@H](CC(=O)O)NC(=O)[C@H](CC(C)C)NC(=O)[C@](C)(CC(C)C)NC(=O)[C@@H](NC(=O)[C@H](CO)NC(=O)[C@@H](NC(=O)[C@H](CC(=O)O)NC(=O)[C@H](CO)NC(=O)[C@@H](NC(=O)[C@](C)(Cc1ccccc1F)NC(=O)[C@@H](NC(=O)CNC(=O)[C@H](CCC(=O)O)NC(=O)C(C)(C)NC(=O)[C@@H](N)Cc1ccc(O)cc1)[C@@H](C)O)[C@@H](C)O)C(C)C)[C@@H](C)CC)[C@@H](C)CC)C(=O)N[C@@H](CCC(=O)O)C(=O)NCC(=O)NCC(=O)N1CCC[C@H]1C(=O)N[C@@H](CO)C(=O)N[C@@H](CO)C(=O)NCC(=O)N[C@@H](C)C(=O)N1CCC[C@H]1C(=O)N1CCC[C@H]1C(=O)N1CCC[C@H]1C(=O)N[C@@H](CO)C(N)=O` [Example 122]?
A: EC50 ([1]; hGIPR EC50, nM (SEM, n), cAMP, incubated at 37° C., 0.1% bovine casein (no human serum albumin)): 0.064 nM; Emax ([2]; HEK293, read-out: hGLP-1R Emax, % ± SEM, percent of maximal response to GLP-1(7-36)NH2, 37° C., 0.1% bovine casein, arithmetic mean): 94.3%; EC50 ([3]; hGCGR EC50, nM (SEM, n), cAMP, incubated at 37° C., 0.1% bovine casein (no human serum albumin), geometric mean): > 9950 nM

Q: Which results are given for `CC[C@H](C)[C@H](NC(=O)[C@H](CCCN)NC(=O)[C@H](CC(=O)O)NC(=O)[C@H](CC(C)C)NC(=O)[C@](C)(CC(C)C)NC(=O)[C@@H](NC(=O)C(C)(C)NC(=O)[C@H](Cc1ccc(O)cc1)NC(=O)[C@H](CC(=O)O)NC(=O)[C@H](CO)NC(=O)[C@@H](NC(=O)[C@](C)(Cc1ccccc1F)NC(=O)[C@@H](NC(=O)CNC(=O)[C@H](CCC(=O)O)NC(=O)C(C)(C)NC(=O)[C@@H](N)Cc1ccc(O)cc1)[C@@H](C)O)[C@@H](C)O)[C@@H](C)CC)C(=O)N[C@@H](C)C(=O)N[C@@H](CCC(N)=O)C(=O)NC(C)(C)C(=O)N[C@@H](CCC(=O)O)C(=O)N[C@@H](Cc1ccccc1)C(=O)N[C@H](C(=O)N[C@@H](CCCCNC(=O)COCCOCCNC(=O)COCCOCCNC(=O)CC[C@H](NC(=O)CCCCCCCCCCCCC(=O)O)C(=O)O)C(=O)N[C@@](C)(Cc1ccc(O)cc1)C(=O)N[C@@H](CC(C)C)C(=O)N[C@H](C(=O)N[C@@H](CCCCNC(=O)COCCOCCNC(=O)COCCOCCNC(=O)CC[C@H](NC(=O)CCCCCCCCCCCCC(=O)O)C(=O)O)C(=O)NCC(=O)NCC(=O)N1CCC[C@H]1C(=O)N[C@@H](CO)C(=O)N[C@@H](CO)C(=O)NCC(=O)N[C@@H](C)C(=O)N1CCC[C@H]1C(=O)N1CCC[C@H]1C(=O)N1CCC[C@H]1C(=O)N[C@@H](CO)C(N)=O)[C@@H](C)CC)[C@@H](C)CC` [Example 233]?
A: EC50 ([1]; 0.1% bovine casein and 1.0% human serum albumin, 37° C., read-out: hGIPR EC50, nM (SEM, n)): 6.08 nM; Emax ([1]; HEK293, 0.1% bovine casein and 1.0% human serum albumin, 37° C., percent of maximal response to GIP(1-42)NH2, read-out: hGIPR Emax, % ± SEM): 91.4%; Emax ([1]; HEK293, percent of maximal response to GIP(1-42)NH2, 37° C., 0.1% bovine casein, arithmetic mean, read-out: hGIPR Emax, % ± SEM): 105%; EC50 ([1]; cAMP, incubated at 37° C., 0.1% bovine casein (no human serum albumin), read-out: hGIPR EC50, nM (SEM, n)): 0.0269 nM; EC50 ([2]; 0.1% bovine casein and 1.0% human serum albumin, 37° C., geometric mean, read-out: hGLP-1R EC50, nM (SEM, n)): 56.7 nM; Emax ([2]; HEK293, 0.1% bovine casein and 1.0% human serum albumin, 37° C., percent of maximal response to GLP-1(7-36)NH2, read-out: hGLP-1R Emax, % ± SEM): 116%; Emax ([2]; HEK293, percent of maximal response to GLP-1(7-36)NH2, 37° C., 0.1% bovine casein, arithmetic mean, read-out: hGLP-1R Emax, % ± SEM): 111%; EC50 ([2]; cAMP, incubated at 37° C., 0.1% bovine casein (no human serum albumin), geometric mean, read-out: hGLP-1R EC50, nM (SEM, n)): 0.604 nM; EC50 ([3]; 0.1% bovine casein and 1.0% human serum albumin, 37° C., geometric mean, read-out: hGCGR EC50, nM (SEM, n)): > 9950 nM; EC50 ([3]; cAMP, incubated at 37° C., 0.1% bovine casein (no human serum albumin), geometric mean, read-out: hGCGR EC50, nM (SEM, n)): > 9950 nM

Q: What does the source list for `CC[C@H](C)[C@H](NC(=O)[C@H](CC(C)C)NC(=O)[C@](C)(Cc1ccc(O)cc1)NC(=O)[C@@H](CCC(=O)O)NC(=O)[C@@H](NC(=O)[C@H](Cc1ccccc1)NC(=O)[C@H](CCC(=O)O)NC(=O)C(C)(C)NC(=O)[C@H](CCC(N)=O)NC(=O)[C@H](C)NC(=O)[C@H](CCCCNC(=O)COCCOCCNC(=O)COCCOCCNC(=O)CC[C@H](NC(=O)CCCCCCCCCOc1ccc(C(=O)O)cc1)C(=O)O)NC(=O)[C@H](CCCN)NC(=O)[C@H](CC(=O)O)NC(=O)[C@H](CC(C)C)NC(=O)[C@](C)(CC(C)C)NC(=O)[C@@H](NC(=O)[C@H](CO)NC(=O)[C@H](CCc1ccc(O)cc1)NC(=O)[C@H](CC(=O)O)NC(=O)[C@H](CO)NC(=O)[C@@H](NC(=O)[C@](C)(Cc1ccccc1F)NC(=O)[C@@H](NC(=O)CNC(=O)[C@H](CCC(=O)O)NC(=O)C(C)(C)NC(=O)[C@@H](N)Cc1ccc(O)cc1)[C@@H](C)O)[C@@H](C)O)[C@@H](C)CC)[C@@H](C)CC)C(=O)N[C@@H](CCCCNC(=O)COCCOCCNC(=O)COCCOCCNC(=O)CC[C@H](NC(=O)CCCCCCCCCOc1ccc(C(=O)O)cc1)C(=O)O)C(=O)NCC(=O)NCC(=O)N1CCC[C@H]1C(=O)N[C@@H](CO)C(=O)N[C@@H](CO)C(=O)NCC(=O)N[C@@H](C)C(=O)N1CCC[C@H]1C(=O)N1CCC[C@H]1C(=O)N1CCC[C@H]1C(=O)N[C@@H](CO)C(N)=O` [Example 327]?
A: Emax [1, 4]: 90.2%; EC50 [1, 5]: 0.018 nM; EC50 [2, 6]: 0.211 nM; EC50 ([2]; hGLP-1R EC50, nM (SEM, n), cAMP, 37° C., 0.1% bovine casein and 1.0% human serum albumin, geometric mean (SEM, n)): 13.6 nM; EC50 [3, 7]: > 9950 nM; EC50 [3, 8]: > 9950 nM

Reference: US20230265151A1, “GIP/GLP1 CO-AGONIST COMPOUNDS” (priority 2020, published 2023)
